In patent US7250442B2, “Dihydroindol-2-one derivatives as steroid hormone nuclear receptor modulators” (Eli Lilly and Company, priority 2003, dated 2007):

Molecular target: T1, human MR (Homo sapiens, UniProt P08235)
T1 construct: The full length human MR gene is cloned from a human kidney or human brain cDNA library; made in house; host or cells: Sf9 insect cells (baculovirus, pAcHLT transfer vector)
T1 sequence (P08235 1-984): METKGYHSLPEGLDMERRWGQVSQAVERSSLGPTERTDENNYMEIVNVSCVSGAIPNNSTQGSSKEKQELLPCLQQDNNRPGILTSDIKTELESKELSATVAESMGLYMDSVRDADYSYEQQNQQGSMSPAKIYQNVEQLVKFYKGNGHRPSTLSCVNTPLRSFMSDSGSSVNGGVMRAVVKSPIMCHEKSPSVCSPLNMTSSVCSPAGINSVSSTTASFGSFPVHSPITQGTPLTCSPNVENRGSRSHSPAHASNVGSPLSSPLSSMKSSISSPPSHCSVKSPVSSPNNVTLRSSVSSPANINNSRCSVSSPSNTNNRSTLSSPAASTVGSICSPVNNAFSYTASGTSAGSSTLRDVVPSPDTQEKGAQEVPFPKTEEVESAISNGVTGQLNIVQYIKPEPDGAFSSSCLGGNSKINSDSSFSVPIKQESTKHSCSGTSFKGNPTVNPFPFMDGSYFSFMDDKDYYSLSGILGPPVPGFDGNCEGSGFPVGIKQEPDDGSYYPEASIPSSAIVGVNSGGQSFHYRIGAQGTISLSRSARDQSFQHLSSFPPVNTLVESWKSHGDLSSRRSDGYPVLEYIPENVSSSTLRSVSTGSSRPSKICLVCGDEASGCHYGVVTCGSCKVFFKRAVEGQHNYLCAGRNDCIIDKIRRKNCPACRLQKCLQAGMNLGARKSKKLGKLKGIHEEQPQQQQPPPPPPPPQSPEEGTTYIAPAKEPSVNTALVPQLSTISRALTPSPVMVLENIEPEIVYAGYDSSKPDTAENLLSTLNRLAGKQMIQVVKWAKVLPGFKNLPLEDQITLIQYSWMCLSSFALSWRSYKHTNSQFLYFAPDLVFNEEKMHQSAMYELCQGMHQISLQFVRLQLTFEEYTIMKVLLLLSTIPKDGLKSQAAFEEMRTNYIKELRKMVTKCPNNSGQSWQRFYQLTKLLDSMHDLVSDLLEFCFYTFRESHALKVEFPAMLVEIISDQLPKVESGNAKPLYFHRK
Test: Mineralocorticoid Receptor Binding Assay ([3H]-aldosterone displacement)
Conditions: full length human MR expressed in Sf9 cells, 0.5 nM [3H]-aldosterone
Method in brief: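 Full-length human MR expressed in Sf9 cells; lysate (20-25 μg protein) incubated with 0.5 nM [3H]-aldosterone and test compound in molybdate/Tris/phosphate/glycerol buffer pH 7.5, 16 h at 4 °C. Bound ligand measured by filtration and scintillation counting; IC50 converted to Ki via Cheng-Prusoff.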

Ki, ≤ 500 nM:
Cc1cc(C2(c3cc(C)c(O)c(C)c3)C(=O)N(CCc3scnc3C)c3ccccc32)cc(C)c1O [Example 121, 3,3-Bis-(4-hydroxy-3,5-dimethyl-phenyl)-1-[2-(4-methyl-thiazol-5-yl)-ethyl]-1,3-dihydro-indol-2-one]
COc1ccc(N2C(=O)C(c3cc(C)c(O)c(C)c3)(c3cc(C)c(O)c(C)c3)c3ccccc32)cc1 [Example 128, 3,3-Bis-(4-hydroxy-3,5-dimethyl-phenyl)-1-(4-methoxy-phenyl)-1,3-dihydro-indol-2-one]
COc1cccc(N2C(=O)C(c3cc(C)c(O)c(C)c3)(c3cc(C)c(O)c(C)c3)c3ccccc32)c1 [Example 134, 3,3-Bis-(4-hydroxy-3,5-dimethyl-phenyl)-1-(3-methoxy-phenyl)-1,3-dihydro-indol-2-one]
Cc1cc(C2(c3cc(C)c(O)c(C)c3)C(=O)N(c3cccnc3)c3ccccc32)cc(C)c1O [Example 135, 3,3-Bis-(4-hydroxy-3,5-dimethyl-phenyl)-1-pyridin-3-yl-1,3-dihydro-indol-2-one]
Cc1cc(C2(c3cc(C)c(O)c(C)c3)C(=O)N(c3cccc(Br)c3)c3ccccc32)cc(C)c1O [Example 139, 1-(3-Bromo-phenyl)-3,3-bis-(4-hydroxy-3,5-dimethyl-phenyl)-1,3-dihydro-indol-2-one]
